Source: patent US6376670B1, “Quinoline-indole antimicrobial agents, uses and compositions related thereto” (Sepracor Inc., priority 1997, dated 2002)
Like-named read-outs stand apart in the source and are kept apart here.

What was measured:
Test in all cases: Determination of MIC values (BHI broth, 96 well microtiter plate)
Format in all cases: cell-based
Streptococcus pneumoniae = settings: Streptococcus pneumoniae, BHI broth, read-out: MIC S. pneu
In short: (§1)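 Broth microdilution in BHI broth used final compound concentrations of 25 to 0.39 μg/mL, diluted from DMSO solutions. Inoculum was 10^5–10^6 cells/mL from cultures grown to a 0.5 McFarland standard. Plates were incubated overnight (~16 h) at 37 °C in about 7–10% CO2; MIC was the lowest concentration with no visible growth.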

[1] = tested on: vancomycin-resistant Enterococcus spp. (VRE); settings: Enterococcus, VRE, BHI broth, read-out: MIC VREF
In short: as §1

[2] = tested on: methicillin-resistant Staphylococcus aureus (MRSA); settings: Staphylococcus aureus, MRSA, BHI broth, read-out: MIC MRSA
In short: as §1

[3] = 37° C., overnight (about 16 hours)
[4] = 16 h, 37° C., overnight (about 16 hours)

SMILES | MIC (Streptococcus pneumoniae; 37° C., about 16 hours) [µg/mL] | MIC ([1]; 16 h, 37° C., about 16 hours) [µg/mL] | MIC ([2]; 16 h, 37° C., about 16 hours) [µg/mL] | MIC (Streptococcus pneumoniae; S. pneu, overnight 37° C.) [µg/mL] | MIC ([1]; VREF, overnight 37° C.) [µg/mL] | MIC ([2]; overnight 37° C.) [µg/mL] | further results
O=C(NCc1cc(-c2c[nH]c3ccc(Br)cc23)nc2cc(Cl)ccc12)NC1CCCCC1 [Example 524] | < 7 | < 7 | < 7 |  |  |  | 
NCc1ccc(CNC(=O)c2cc(-c3c[nH]c4ccc(Br)cc34)nc3ccc(C#CCN4CCSCC4)cc23)cc1 [Example 239] |  |  |  | > 25 | < 7 | < 7 | 
Clc1ccc2nc(-c3c[nH]c4c(Cl)cccc34)ccc2c1 [Example 354] |  |  |  | > 25 | > 25 | > 25 | 
Fc1ccc2c(-c3ccc4ccccc4n3)c[nH]c2c1 [Example 183] |  |  |  |  |  |  | MIC (Streptococcus pneumoniae; [3]): > 25 µg/mL; MIC [1, 4]: > 25 µg/mL; MIC [2, 4]: < 25 µg/mL
CNCCN(C)C(=O)c1cc(-c2c[nH]c3ccc(Br)cc23)nc2ccc(Cl)cc12 [Example 500] | < 7 | < 7 | < 7 |  |  |  | 
COc1ccc2[nH]c(C)c(-c3ccc4c([N+](=O)[O-])cccc4n3)c2c1 [Example 386] |  |  |  | > 25 | > 25 | > 25 | 
NCc1cccc(CNC(=O)c2cc(-c3c[nH]c4ccc(Br)cc34)nc3cc(Br)ccc23)n1 [Example 334] |  |  |  | < 7 | < 7 | < 7 | 
Brc1ccc2[nH]cc(-c3nc4ccc(I)cc4c4c3CCO4)c2c1 [Example 303] |  |  |  | < 7 | > 25 | < 7 | 
Cc1[nH]c2ccccc2c1-c1ccc2cccc(C)c2n1 [Example 472] | < 25 | > 25 | < 25 |  |  |  | 
Cn1cc(-c2cc(C(=O)NCc3ccc(CN)cc3)c3ccc(I)cc3n2)c2cc(Br)ccc21 [Example 328] |  |  |  | < 7 | > 25 | > 25 | 
NCC1CCCC(CNC(=O)c2cc(-c3c[nH]c4ccc(Br)cc34)nc3cc(Cl)cc(Cl)c23)C1 (stereo not drawn) [Example 248] |  |  |  | < 7 | < 7 | < 7 | 
Cn1cc(-c2cc(C(=O)NCCN)c3cc(C#CCN4CC=CC4)ccc3n2)c2cc(Br)ccc21 [Example 406] | < 7 | < 7 | < 7 |  |  |  | 
O=C(O)c1cc(-c2c[nH]c3ccc(Br)cc23)nc2ccc(C#CCNC3CCCCC3)cc12 [Example 233] |  |  |  | < 25 | < 25 | > 25 | 
NCCNC(=O)c1cc(-c2c[nH]c3ccc(Br)cc23)nc2cc(Cl)c(C#CCN3CCSCC3)cc12 [Example 528] | < 7 | < 7 | < 7 |  |  |  | 
NCC(O)CNC(=O)c1cc(-c2c[nH]c3ccc(Br)cc23)nc2cc(Cl)cc(Cl)c12 (stereo not drawn) [Example 533] | < 7 | < 7 | < 7 |  |  |  | 
Cc1cccc2c(-c3ccc4cc(Cl)ccc4n3)c[nH]c12 [Example 291] |  |  |  | > 25 | > 25 | > 25 | 
NCc1ccc(CNC(=O)c2cc(-c3cnc4ccccc4c3)nc3ccc(I)cc23)cc1 [Example 151] |  |  |  |  |  |  | MIC (Streptococcus pneumoniae; [3]): > 25 µg/mL; MIC [1, 4]: > 25 µg/mL; MIC [2, 4]: > 25 µg/mL
Cn1cc(-c2cc(C(=O)NCc3cccc(CN)c3)c3cc(I)ccc3n2)c2cc(Br)ccc21 [Example 356] |  |  |  | < 7 | < 7 | < 7 | 
Cn1cc(-c2cc(C(=O)NC3CCC(N)CC3)c3ccc(I)cc3n2)c2cc(Br)ccc21 (stereo not drawn) [Example 333] |  |  |  | < 7 | < 7 | < 7 | 
O=C(c1cc(-c2c[nH]c3ccc(Br)cc23)nc2ccc(Cl)cc12)N1CCNCC1 [Example 136] |  |  |  |  |  |  | MIC (Streptococcus pneumoniae; [3]): < 7 µg/mL; MIC [1, 4]: < 7 µg/mL; MIC [2, 4]: < 7 µg/mL
NCc1cc(-c2c[nH]c3ccc(Cl)cc23)nc2ccccc12 [Example 372] |  |  |  | < 7 | < 25 | < 7 | 
CC(C)(C)OC(=O)n1cc(/C=N/c2cccc(Cl)c2)c2cc(Br)ccc21 [Example 381] |  |  |  | > 25 | > 25 | > 25 | 
OCc1cc(-c2c[nH]c3ccc(Br)cc23)nc2c(Cl)cccc12 [Example 457] | < 7 | < 7 | < 7 |  |  |  | 
NCc1ccc(CNC(=O)c2cc(-c3c[nH]c4ccc(Br)cc34)nc3cc4c(cc23)OCO4)cc1 [Example 144] |  |  |  |  |  |  | MIC (Streptococcus pneumoniae; [3]): < 25 µg/mL; MIC [1, 4]: < 25 µg/mL; MIC [2, 4]: < 7 µg/mL
NCc1cccc(CNC(=O)c2cc(-c3c[nH]c4ccc(Br)cc34)nc3cc(Cl)cc(Cl)c23)c1 [Example 246] |  |  |  | < 7 | < 7 | < 7 | 
O=C(O)c1cc(-c2c[nH]c3ccc(Br)cc23)nc2cc(Cl)c(C#CCN3CCCCC3)cc12 [Example 516] | < 7 | < 25 | < 7 |  |  |  | 
